# Source: patent publication US20240228488A1 (TAKEDA PHARMACEUTICAL COMPANY LIMITED, priority 2021, published 2024)
# Molecular target: human activated kallikrein enzyme (Homo sapiens, UniProt P03952)
# Experiment: Plasma kallikrein inhibition, fluorogenic PFR-AMC substrate, 500 pM activated kallikrein format
# Format: biochemical
# Details: 500 pM activated kallikrein, 300 uM PFR-AMC, 30 min preincubation, 10 min reaction; read-out: Primary Dose Response Assay: Average EC50
# Protocol: Compounds were evaluated for inhibition of the human activated kallikrein enzyme in two formats of an assay employing a fluorogenic peptide substrate. In one assay format, the concentrations of reagents were as follows: 20 mM Tris pH 7.5, 1 mM EDTA, 150 mM sodium chloride, 0.1% PEG-400, 0.1% Triton X-100, 500 pM activated kallikrein enzyme, 300 uM Pro-Phe-Arg-7-amido-4-methylcoumarin (PFR-AMC) substrate. Prior to reaction initiation with substrate, enzyme and inhibitors were preincubated for 30 min at room temperature. After initiation with substrate, reactions were incubated for 10 min at room temperature and fluorescence emission at 460 nm from 380 nm excitation measured with a microplate reader. In another assay format, the concentrations of reagents were as follows: 20 mM Tris pH 7.5, 1 mM EDTA, 150 mM sodium chloride, 0.1% PEG-400, 0.1% Triton X-100, 5 pM activated kallikrein enzyme, 300 uM PFR-AMC substrate. Prior to reaction initiation with substrate, enzyme and inhibitors were preincubated for 30 min at room temperature. After initiation with substrate, reactions were incubated for 18 hr at room temperature and fluorescence emission at 460 nm from 380 nm excitation measured with a microplate reader.
# Table 49 provides the results of the assay in the format with 500 pM activated kallikrein assay. For the compounds listed in Table 49, the EC50 values are reported according to the following ranges: A≤1.0 nM; 1.0 nM<B≤10 nM; 10 nM<C≤100 nM; 100 nM<D≤1000 nM; 1000 nM<E≤6000 nM; 6000 nM<F.
# Table 51 provides comparative plasma kallikrein inhibition potency in the assay format with 500 pM activated kallikrein assay (described in detail in a preceding example). For the compounds listed in Table 51, the EC50 values are reported according to the following ranges: A≤1.0 nM; 1.0 nM<B≤10 nM; 10 nM<C≤100 nM; 100 nM<D≤1000 nM; 1000 nM<E≤6000 nM; 6000 nM<F.
# Sequence of human activated kallikrein enzyme (P03952 391-638 limits assumed): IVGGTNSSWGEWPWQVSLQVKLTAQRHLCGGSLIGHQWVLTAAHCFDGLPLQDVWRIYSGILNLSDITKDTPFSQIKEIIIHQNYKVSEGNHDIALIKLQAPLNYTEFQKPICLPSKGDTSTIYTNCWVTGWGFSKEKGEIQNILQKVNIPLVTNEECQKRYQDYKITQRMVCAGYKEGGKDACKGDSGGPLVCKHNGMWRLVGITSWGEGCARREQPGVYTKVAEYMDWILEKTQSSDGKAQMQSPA
# Sequence of human activated kallikrein enzyme (P03952 20-390 partner limits assumed): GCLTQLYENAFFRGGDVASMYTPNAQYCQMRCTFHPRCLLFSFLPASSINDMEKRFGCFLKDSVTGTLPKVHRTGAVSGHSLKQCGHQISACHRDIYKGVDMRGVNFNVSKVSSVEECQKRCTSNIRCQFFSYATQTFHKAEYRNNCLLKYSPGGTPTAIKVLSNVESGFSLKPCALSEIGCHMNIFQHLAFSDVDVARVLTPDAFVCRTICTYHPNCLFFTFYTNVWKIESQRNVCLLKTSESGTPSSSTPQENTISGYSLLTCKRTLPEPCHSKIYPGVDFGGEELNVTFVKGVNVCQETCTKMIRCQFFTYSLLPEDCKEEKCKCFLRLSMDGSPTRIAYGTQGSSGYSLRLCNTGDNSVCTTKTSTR
row,Compound,EC50 [nM]
1,"O=C(Nc1cc(NCc2cn3cc(C4CC4)ccc3n2)ccn1)[C@H]1[C@H](CO)[C@@H]1c1cccc(Cl)c1 (racemic) [Example I-213, rac-(1R*,2S*,3R*)-2-(3-chlorophenyl)-N-(4-(((6-cyclopropylimidazo[1,2-a]pyridin-2-yl)methyl)amino)pyridin-2-yl)-3-(hydroxymethyl)cyclopropane-1-carboxamide]",1 to 10
2,"O=C(Nc1nccc2nn(Cc3cn4cc(C5CC5)ccc4n3)cc12)[C@H]1C[C@@H]1c1cc(Cl)ccc1-n1cnnn1 (racemic) [Example 586, rac-(1S*,2S*)-2-(5-chloro-2-(1H-tetrazol-1-yl)phenyl)-N-(2-((6-cyclopropylimidazo[1,2-a]pyridin-2-yl)methyl)-2H-pyrazolo[4,3-c]pyridin-4-yl)cyclopropane-1-carboxamide]",< 1
3,"CN(C)c1ccc2nc(CNc3cc(NC(=O)[C@H]4C[C@@H]4c4cccc(Cl)c4)ncn3)cn2c1 [Example I-205, (1S,2S)-2-(3-chlorophenyl)-N-(6-(((6-(dimethylamino)imidazo[1,2-a]pyridin-2-yl)methyl)amino)pyrimidin-4-yl)cyclopropane-1-carboxamide]",10 to 100
4,"Cc1cc(NCc2cn3cc(C4CC4)cc(N4CC(=O)N(C)C4=O)c3n2)cc(NC(=O)[C@H]2C[C@@H]2c2nccc(C)n2)n1 [Example I-642, (1S,2S)—N-(4-(((6-cyclopropyl-8-(3-methyl-2,4-dioxoimidazolidin-1-yl)imidazo[1,2-a]pyridin-2-yl)methyl)amino)-6-methylpyridin-2-yl)-2-(4-methylpyrimidin-2-yl)cyclopropane-1-carboxamide]",< 1
5,"Cc1ccnc(C2CC2C(=O)Nc2cc(OCc3cn4cc(C5CC5)cc(N5CC(=O)N(C)C5=O)c4n3)c(C(F)(F)F)nn2)n1 (stereo not shown) [Example 666, N-(5-((6-cyclopropyl-8-(3-methyl-2,4-dioxoimidazolidin-1-yl)imidazo[1,2-a]pyridin-2-yl)methoxy)-6-(trifluoromethyl)pyridazin-3-yl)-2-(4-methylpyrimidin-2-yl)cyclopropane-1-carboxamide]",< 1
6,"O=C(Nc1cc(NCc2cn3cc(C4CC4)ccc3n2)ncn1)[C@H]1C[C@@H]1c1ncn2ccc(Cl)c(F)c12 (racemic) [Example 504, rac-(1S*,2S*)-2-(7-chloro-8-fluoroimidazo[1,5-a]pyridin-1-yl)-N-(6-(((6-cyclopropylimidazo[1,2-a]pyridin-2-yl)methyl)amino)pyrimidin-4-yl)cyclopropane-1-carboxamide]",10 to 100
7,"CC(NC(=O)[C@H]1C[C@@H]1c1cccc(Cl)c1)c1cn(Cc2cn3cc(C4CC4)ccc3n2)nn1 (single isomer, unassigned) [Example 589, rac-(1S*,2S*)-2-(3-chlorophenyl)-N-(1-(1-((6-cyclopropylimidazo[1,2-a]pyridin-2-yl)methyl)-1H-1,2,3-triazol-4-yl)ethyl)cyclopropane-1-carboxamide]",10 to 100
8,"O=C(Nc1cc(NCc2cn3cc(C4CC4)ccc3n2)ncn1)[C@@H]1C[C@]12C(=O)Nc1ccc(Cl)cc12 (racemic) [Example 509, rac-(1R*,2S*)-5′-chloro-N-(6-(((6-cyclopropylimidazo[1,2-a]pyridin-2-yl)methyl)amino)pyrimidin-4-yl)-2′-oxospiro[cyclopropane-1,3′-indoline]-2-carboxamide]",< 1
9,"Cc1cc(NC(=O)[C@H]2C[C@@H]2c2nccc(C)n2)nc(N[C@H](C)c2cn3cc(C4CC4)cc(N4CC(=O)N(C)C4=O)c3n2)n1 [Example 440, (1S,2S)-N-(2-(((R)-1-(6-cyclopropyl-8-(3-methyl-2,4-dioxoimidazolidin-1-yl)imidazo[1,2-a]pyridin-2-yl)ethyl)amino)-6-methylpyrimidin-4-yl)-2-(4-methylpyrimidin-2-yl)cyclopropane-1-carboxamide]",< 1
10,"O=C(Nc1cc(NCc2cn3cc(C4CC4)ccc3n2)c(F)cn1)[C@H]1C[C@@H]1c1cccc(Cl)c1 (racemic) [Example 86, rac-(1S*,2S*)-2-(3-chlorophenyl)-N-(4-(((6-cyclopropylimidazo[1,2-a]pyridin-2-yl)methyl)amino)-5-fluoropyridin-2-yl)cyclopropane-1-carboxamide]",100 to 1000
11,"Cc1ccnc([C@H]2C[C@@H]2C(=O)Nc2cc(N[C@H](C)c3cn4cc(C(C)F)cc(N5CC(=O)N(C)C5=O)c4n3)ncn2)n1 (stereo partly drawn) [Example 530, (1S,2S)-N-(6-(((1R)-1-(6-(1-fluoroethyl)-8-(3-methyl-2,4-dioxoimidazolidin-1-yl)imidazo[1,2-a]pyridin-2-yl)ethyl)amino)pyrimidin-4-yl)-2-(4-methylpyrimidin-2-yl)cyclopropane-1-carboxamide]",< 1
12,"O=C(Nc1cc(NCc2cn3cc(C4CC4)ccc3n2)ncn1)[C@H]1C[C@@H]1c1cccc(Cl)c1 (racemic) [Example 55, rac-(1S*,2S*)-2-(3-chlorophenyl)-N-(6-(((6-cyclopropylimidazo[1,2-a]pyridin-2-yl)methyl)amino)pyrimidin-4-yl)cyclopropane-1-carboxamide]",1 to 10
13,"O=C(Nc1nccc2nn(Cc3cn4cc(C5CC5)ccc4n3)cc12)[C@H]1C[C@@H]1c1cc(Cl)ccc1[N+](=O)[O-] (racemic) [Example 578, rac-(1S*,2S*)-2-(5-chloro-2-nitrophenyl)-N-(2-((6-cyclopropylimidazo[1,2-a]pyridin-2-yl)methyl)-2H-pyrazolo[4,3-c]pyridin-4-yl)cyclopropane-1-carboxamide]",1 to 10
14,"O=C(Nc1cc(NCc2nc3ccc(C4CC4)cn3c2Cl)ncn1)[C@H]1C[C@@H]1c1cccc(Cl)c1 (racemic) [Example 69, rac-(1S*,2S*)-N-(6-(((3-chloro-6-cyclopropylimidazo[1,2-α]pyridin-2-yl)methyl)amino)pyrimidin-4-yl)-2-(3-chlorophenyl)cyclopropane-1-carboxamide]",1000 to 6000
15,"Cc1ccnc([C@@H]2C[C@H]2C(=O)Nc2cc(OCc3cn4cc(C5CC5)cc(N5CC(=O)N(C)C5=O)c4n3)ncn2)n1 (single isomer, unassigned) [Example 29]",100 to 1000
16,"O=C(Nc1cc(NCc2cn3cc(C4CC4)cc(CN4CCOCC4)c3n2)ncn1)[C@H]1C[C@@H]1c1cccc(Cl)c1 (racemic) [Example 73, rac-(1S*,2S*)-2-(3-chlorophenyl)-N-(6-(((6-cyclopropyl-8-(morpholinomethyl)imidazo[1,2-a]pyridin-2-yl)methyl)amino)pyrimidin-4-yl)cyclopropane-1-carboxamide]",1 to 10
17,"Cc1ccnc([C@H]2C[C@@H]2C(=O)Nc2ncnc3nn(Cc4cn5cc(C6CC6)cc(N6CC(=O)N(C)C6=O)c5n4)cc23)n1 (racemic) [Example 632, rac-(1S*,2S*)—N-(2-((6-cyclopropyl-8-(3-methyl-2,4-dioxoimidazolidin-1-yl)imidazo[1,2-a]pyridin-2-yl)methyl)-2H-pyrazolo[3,4-d]pyrimidin-4-yl)-2-(4-methylpyrimidin-2-yl)cyclo propane-1-carboxamide]",< 1
18,"COc1ncccc1-c1cc(C2CC2)cn2cc(CNc3cc(NC(=O)[C@H]4C[C@@H]4c4cccc(Cl)c4)ncn3)nc12 [Example I-150, (1S,2S)-2-(3-chlorophenyl)-N-(6-(((6-cyclopropyl-8-(2-methoxypyridin-3-yl)imidazo[1,2-a]pyridin-2-yl)methyl)amino)pyrimidin-4-yl)cyclopropane-1-carboxamide]",10 to 100
19,"CC1OCCN(c2cc(C3CC3)cn3cc(CNc4cc(NC(=O)[C@H]5C[C@@H]5c5cccc(Cl)c5)ncn4)nc23)C1=O (relative stereo) [Example 68, rac-(1S*,2S*)-2-(3-chlorophenyl)-N-(6-(((6-cyclopropyl-8-(2-methyl-3-oxomorpholino)imidazo[1,2-α]pyridin-2-yl)methyl)amino)pyrimidin-4-yl)cyclopropane-1-carboxamide]",1 to 10
20,"Cc1ccnc([C@H]2C[C@@H]2C(=O)Nc2cc(C(O)Cc3cn4cc(C5CC5)cc(N5CC(=O)N(C)C5=O)c4n3)nc(C)n2)n1 (stereo partly drawn) [Example 674, (1S,2S)—N-(6-(2-(6-cyclopropyl-8-(3-methyl-2,4-dioxoimidazolidin-1-yl)imidazo[1,2-a]pyridin-2-yl)-1-hydroxyethyl)-2-methylpyrimidin-4-yl)-2-(4-methylpyrimidin-2-yl)cyclopropane-1-carboxamide]",10 to 100
21,"Cc1ccnc([C@@H]2C[C@H]2C(=O)Nc2cc(NCc3cn4cc(C5CC5)cc(N5CC(=O)N(C)C5=O)c4n3)ncn2)n1 (single isomer, unassigned) [Example I-261]",10 to 100

# Same assay, conditions: comparative compounds, 500 pM activated kallikrein format; read-out: Primary Dose Response Assay: Average EC50
row,Compound,EC50 [nM]
1,O=C(NC1CC1Cc1cccc(Cl)c1)c1cnn(Cc2cn3cc(C4CC4)ccc3n2)c1 (stereo not shown),1000 to 6000
